Results reported in patent US11142527B2, “Dihydropyrimidine compounds and uses thereof in medicine” (SUNSHINE LAKE PHARMA CO., LTD., priority 2017, dated 2021).

How the values were obtained:
HBV = assay: Test of anti HBV activity in vitro (viral DNA by qPCR); format: cell-based; conditions: Hepatitis B virus; HepG2.2.15 cells, viral DNA in cell culture supernatant by qPCR; read-out: EC50 values of the compound of the invention on viral replication
Method: Test 1: Test Method of Calculating Anti HBV EC50
HBV Cell Line and Culture Conditions
HepG2.2.15 (SELLS, PNAS, 1987 and SELLS, JV, 1988) chromosomes have an integrated complete HBV genome, and stably express viral RNA and viral protein. HepG2.2.15 cells can secrete mature HBV particles, HBsAg and HBeAg, to medium. HepG2.2.15 cells were cultured in DMEM containing 10% fetal bovine serum, 100 U/mL penicillin, 100 U/mL streptomycin, 1% non essential amino acid, 1 mM sodium pyruvate and 300 μg/mL G418.
Viral particles DNA secreted from HepG2.2.15 cells can be quantified by qPCR, and the effect of the compound on viral replication can be detected.
Test of Anti HBV Activity In Vitro
8000 HepG 2.2.15 cells per well were seeded into a 96-well plate, the plate was cultured at 37° C. and 5% CO2 for 3 days till the cells grew to full wells. Old liquid medium can be removed and replaced with new medium (200 μL) on day 0.
Formulating the compound and treating the cells in the experiment of anti virus: the compound was dissolved in DMSO to a concentration of 30 mM, and then the compound solution was diluted with DMSO to a concentration of 800 μM, and then eight dilutions at 4 fold were performed, the highest concentration is 800 μM. The serial diluted compound was added to the above plate at 1 μL per well, the highest final concentration in the experiment is 4 μM (200 fold dilution). TDF (tenofovir dipiroxil fumarate, Selleck, Cat S1400) has a highest concentration of 4 μM as a positive control. 1 μL of DMSO was added in to the […] at a final concentration of 0.5%, TDF was added in to the […] at a final concentration of 1 μM.
Detection of Viral Genomic DNA by aPCR
Primer: HBV-For-202, […]; HBV-Rev-315, […]. Copies of virus can be calculated using a standard curve plotted by using plasmid containing HBV genome and using SYBR Premix Ex Taq II—Takara DRR081S kit and 1 μL cell culture supernatant as a template. EC50 values of the compound on viral replication were calculated by a four parametric nonlinear regression model using Graphpad Prism 5 software to manage concentration—viral copy number.

[1] = Cytotoxicity test with CellTiter Glo; format: cell-based; conditions: human, HepG2.2.15 cells, highest concentration 150 μM, read-out: CC50 values of the compounds of the invention
Method: Test 2: Cytotoxicity and Selectivity Index
Methods of Testing Cytotoxicity and Selectivity Index
The serial diluted compound was added to a 384 wells plate at 50 μL HepG2.2.15 cell per well (3000 cells per well), the highest final concentration in the experiment is 150 μM (200 fold dilution). The plate was cultured at 37° C. in an incubator with CO2 for 4 days, and cytotoxicity of the compound was detected using CellTiter Glo agent.
The cytotoxicity of the compound was calculated using the following formulate, cytotoxicity (%)=100−(detection value/mean of DMSO control wells values×100) CC50 values were calculated by a four parametric nonlinear regression model using Graphpad Prism 5 software to manage concentration−cytotoxicity (%).

Compound COC(=O)C1=C(CN2CCN3C(=O)N(c4nc(-c5ccc(C(C)(C)C(=O)O)cc5)cs4)C[C@@H]3C2)NC(c2nccs2)=N[C@H]1c1ccc(F)cc1Cl [Example 17, 2-(4-(2-((S)-7-(((R)-6-(2-chloro-4-fluorophenyl)-5-(methoxycarbonyl)-2-(thiazol-2-yl)-3,6-dihydropyrimidin-4-yl)methyl)-3-oxohexahydroimidazo[1,5-a]pyrazin-2(3H)-yl)thiazol-4-yl)phenyl)-2-methylpropionic acid] has an EC50 (HBV) of 6 nM and a CC50 at 4 days [1] of over 150000 nM.

COC(=O)C1=C(CN2CCN3C(=O)N(c4ccc(-c5ccc(C(C)(C)C(=O)O)cc5)cn4)C[C@@H]3C2)NC(c2nccs2)=N[C@H]1c1ccc(F)cc1Cl [Example 19, 2-(4-(6-((S)-7-(((R)-6-(2-chloro-4-fluorophenyl)-5-(methoxycarbonyl)-2-(thiazol-2-yl)-3,6-dihydropyrimidin-4-yl)methyl)-3-oxohexahydroimidazo[1,5-a]pyrazin-2(3H)-yl)pyridin-3-yl)phenyl)-2-methylpropionic acid] showed an EC50 (HBV) of 14 nM and a CC50 at 4 days [1] of over 150000 nM.

With COC(=O)C1=C(CN2CCN3C(=O)N(c4ccc(N5CCO[C@H](CCC(=O)O)C5)cc4)C[C@@H]3C2)NC(c2nccs2)=N[C@H]1c1ccc(F)cc1Cl [Example 20, 3-((R)-4-(4-((S)-7-(((R)-6-(2-chloro-4-fluorophenyl)-5-(methoxycarbonyl)-2-(thiazol-2-yl)-3,6-dihydropyrimidin-4-yl)methyl)-3-oxohexahydroimidazo[1,5-a]pyrazin-2(3H)-yl)phenyl)morpholin-2-yl)propionic acid] the EC50 (HBV) was 4 nM and the CC50 at 4 days [1] was over 150000 nM.

In the case of COC(=O)C1=C(CN2CCN3C(=O)N(c4ccc(Oc5ccc(C(=O)O)cc5F)cn4)C[C@@H]3C2)NC(c2nccs2)=N[C@H]1c1ccc(F)cc1Cl [Example 22, 4-((6-((S)-7-(((R)-6-(2-chloro-4-fluorophenyl)-5-(methoxycarbonyl)-2-(thiazol-2-yl)-3,6-dihydropyrimidin-4-yl)methyl)-3-oxohexahydroimidazo[1,5-a]pyrazin-2(3H)-yl)pyridin-3-yl)oxy)-3-fluorobenzoic acid], the EC50 (HBV) is reported as 18 nM and the CC50 at 4 days [1] is reported as over 150000 nM.

COC(=O)C1=C(CN2CCN3C(=O)N(c4cc(F)cc(OC5CCC(C(=O)O)CC5)c4)C[C@@H]3C2)NC(c2nccs2)=N[C@H]1c1ccc(F)cc1Cl (stereo partly drawn) [Example 23, 4-(3-((S)-7-(((R)-6-(2-chloro-4-fluorophenyl)-5-(methoxycarbonyl)-2-(thiazol-2-yl)-3,6-dihydropyrimidin-4-yl)methyl)-3-oxohexahydroimidazo[1,5-a]pyrazin-2(3H)-yl)-5-fluorophenoxy)cyclohexane carboxylic acid] gave an EC50 (HBV) of 7 nM and a CC50 at 4 days [1] of over 150000 nM.

Work on COC(=O)C1=C(CN2CCN3C(=O)N(c4ccc(C5(C#N)CC5)cc4)C[C@@H]3C2)NC(c2nccs2)=N[C@H]1c1ccc(F)cc1Cl [Example 26] yielded an EC50 (HBV) of 1 nM and a CC50 at 4 days [1] of over 150000 nM.

Work on COC(=O)C1=C(CN2CCN3C(=O)N(c4ccc(Oc5ccc(C(=O)NCc6ccccc6Cl)cc5)cc4)C[C@@H]3C2)NC(c2nccs2)=N[C@H]1c1ccc(F)cc1Cl [Example 62, (R)-methyl 4-(2-chloro-4-fluorophenyl)-6-(((S)-2-(4-(4-((2-chlorobenzyl)carbamoyl)phenoxy)phenyl)-3-oxohexahydroimidazo[1,5-a]pyrazin-7(1H)-yl)methyl)-2-(thiazol-2-yl)-1,4-dihydropyrimidine-5-carboxylate] yielded a CC50 at 4 days [1] of over 150000 nM.

For COC(=O)C1=C(CN2CCN3C(=O)N(c4ccc(Oc5ccc(C(=O)N6CCOC[C@@H]6CCC(=O)O)cc5)cc4)C[C@@H]3C2)NC(c2nccs2)=N[C@H]1c1ccc(F)cc1Cl [Example 73, 3-((S)-4-(4-(4-((S)-7-(((R)-6-(2-chloro-4-fluorophenyl)-5-(methoxycarbonyl)-2-(thiazol-2-yl)-3,6-dihydropyrimidin-4-yl)methyl)-3-oxohexahydroimidazo[1,5-a]pyrazin-2(3H)-yl)phenoxy)benzoyl)morpholin-3-yl)propanoic acid], the CC50 at 4 days [1] was over 150000 nM.

With COC(=O)C1=C(CN2CCN3C(=O)N(c4ccc(Oc5ccc(C(=O)NCC(C)(C)C(=O)O)cc5)cc4)C[C@@H]3C2)NC(c2nccs2)=N[C@H]1c1ccc(F)cc1Cl [Example 75, 3-(4-(4-((S)-7-(((R)-6-(2-chloro-4-fluorophenyl)-5-(methoxycarbonyl)-2-(thiazol-2-yl)-3,6-dihydropyrimidin-4-yl)methyl)-3-oxohexahydroimidazo[1,5-a]pyrazin-2(3H)-yl)phenoxy)benzamido)-2,2-dimethylpropanoic acid] the CC50 at 4 days [1] was over 150000 nM.

In the case of COC(=O)C1=C(CN2CCN3C(=O)N(c4cncc(Oc5ccc(C(=O)O)cc5F)c4)C[C@@H]3C2)NC(c2nccs2)=N[C@H]1c1ccc(F)cc1Cl [Example 81, 4-((5-((S)-7-(((R)-6-(2-chloro-4-fluorophenyl)-5-(methoxycarbonyl)-2-(thiazol-2-yl)-3,6-dihydropyrimidin-4-yl)methyl)-3-oxohexahydroimidazo[1,5-a]pyrazin-2(3H)-yl)pyridin-3-yl)oxy)-3-fluorobenzoic acid], the CC50 at 4 days [1] is reported as over 150000 nM.

COC(=O)C1=C(CN2CCN3C(=O)N(c4ccc(Oc5ccc(OCC(F)(F)F)cc5)cc4)C[C@@H]3C2)NC(c2nccs2)=N[C@H]1c1ccc(F)cc1Cl [Example 104, (R)-methyl 4-(2-chloro-4-fluorophenyl)-6-(((S)-3-oxo-2-(4-(4-(2,2,2-trifluoroethoxy)phenoxy)phenyl)hexahydroimidazo[1,5-a]pyrazin-7(1H)-yl)methyl)-2-(thiazol-2-yl)-1,4-dihydropyrimidine-5-carboxylate] gave a CC50 at 4 days [1] of over 150000 nM.

COC(=O)C1=C(CN2CCN3C(=O)N(c4ccc(-c5ccc(C(=O)O)c(F)c5)cc4F)C[C@@H]3C2)NC(c2nccs2)=N[C@H]1c1ccc(F)cc1Cl [Example 121, 4′-((S)-7-(((R)-6-(2-chloro-4-fluorophenyl)-5-(methoxycarbonyl)-2-(thiazol-2-yl)-3,6-dihydropyrimidin-4-yl)methyl)-3-oxohexahydroimidazo[1,5-a]pyrazin-2(3H)-yl)-3,3′-difluoro-[1,1′-biphenyl]-4-carboxylic acid] showed an EC50 (HBV) of 36.4 nM.

In the case of COC(=O)C1=C(CN2CCN3C(=O)N(c4ccc(-c5ccc(C(=O)O)cc5F)nc4)C[C@@H]3C2)NC(c2nccs2)=N[C@H]1c1ccc(F)cc1Cl [Example 124, 4-(5-((S)-7-(((R)-6-(2-chloro-4-fluorophenyl)-5-(methoxycarbonyl)-2-(thiazol-2-yl)-3,6-dihydropyrimidin-4-yl)methyl)-3-oxohexahydroimidazo[1,5-a]pyrazin-2(3H)-yl)pyridin-2-yl)-3-fluorobenzoic acid], the EC50 (HBV) is reported as 47.4 nM.

For COC(=O)C1=C(CN2CCN3C(=O)N(c4cc(F)cc(N5CCO[C@H](CCC(=O)O)C5)c4)C[C@@H]3C2)NC(c2nccs2)=N[C@H]1c1ccc(F)cc1Cl [Example 131, 3-((R)-4-(3-((S)-7-(((R)-6-(2-chloro-4-fluorophenyl)-5-(methoxycarbonyl)-2-(thiazol-2-yl)-3,6-dihydropyrimidin-4-yl)methyl)-3-oxohexahydroimidazo[1,5-a]pyrazin-2(3H)-yl)5-fluorophenyl)morpholin-2-yl)propanoic acid], the EC50 (HBV) was 8.6 nM.

Compound COC(=O)C1=C(CN2CCN3C(=O)N(c4nc(-c5ccc(CC(=O)O)cc5)cs4)C[C@@H]3C2)NC(c2nccs2)=N[C@H]1c1ccc(F)cc1Cl [Example 134, 2-(4-(2-((S)-7-(((R)-6-(2-chloro-4-fluorophenyl)-5-(methoxycarbonyl)-2-(thiazol-2-yl)-3,6-dihydropyrimidin-4-yl)methyl)-3-oxohexahydroimidazo[1,5-a]pyrazin-2(3H)-yl)thiazol-4-yl)phenyl)acetic acid] has an EC50 (HBV) of 4 nM.

COC(=O)C1=C(CN2CCN3C(=O)N(c4nc(-c5cccc(CCC(=O)O)c5)cs4)C[C@@H]3C2)NC(c2nccs2)=N[C@H]1c1ccc(F)cc1Cl [Example 140, 3-(3-(2-((S)-7-(((R)-6-(2-chloro-4-fluorophenyl)-5-(methoxycarbonyl)-2-(thiazol-2-yl)-3,6-dihydropyrimidin-4-yl)methyl)-3-oxohexahydroimidazo[1,5-a]pyrazin-2(3H)-yl)thiazol-4-yl)phenyl)propanoic acid] showed an EC50 (HBV) of 18.3 nM.
